Key:
[1] = system: male New-Zealand rabbits; assay: Hypotensive activity in rabbits after topical administration (intraocular pressure); format: in vivo; conditions: rabbit; for effect on pressure in the contralateral eye (evidence of an action at the level of the central nervous system): same experimental conditions (topical instillation); for Duration of the effect / t (time corresponding to the maximum effect) / Δmax (maximum decrease of the intraocular pressure with respect to the basic value at time zero): 0.5% isotonic aqueous solution instilled in an eye
Procedure: 2. Hypotensive activity in rabbits, after topical administration
The experiments were conducted using male New-Zealand rabbits (2 kg body weight) given "ad libitum" food and drink.
The animals are given a few days to get accustomed to the animal house, are conditioned to stabling in restraining boxes, and to the ocular pressure determinations, in order to prevent pressure deviations induced by stress and handling.
The intraocular pressure is determined with an ALCON aplanation pneumatonograph, standardized by means of an isolated cornea of rabbit, under water pressure.
The compounds are tested in isotonic aqueous solution, at pH 7.25 μl of an 0.5% solution are instilled in an eye, and the intraocular pressure is determined as a function of time.
Table below gives the maximum decrease of the intraocular pressure (Δ max) with respect to the basic value at time zero (time of instillation), the time corresponding to this maximum effect (t), and the total duration of the effect.

[2] = target: T1, platelet α2 adrenergic receptors (Oryctolagus cuniculus, UniProt Q5ZQK3); assay: Affinity for platelet α2 adrenergic receptors (inhibition of specific linking of tritiated dihydroergocryptine); format: binding; conditions: rabbit platelet membranes, tritiated DHE 7 nM, 30 minutes at 25° C.; read-out: CE50 (dosage required to inhibit 50 percent of the linking of tritiated DHE)
T1 construct: from tissue; host or cells: platelet membranes from blood of male New Zealand albino rabbits
T1 sequence (Q5ZQK3 1-451): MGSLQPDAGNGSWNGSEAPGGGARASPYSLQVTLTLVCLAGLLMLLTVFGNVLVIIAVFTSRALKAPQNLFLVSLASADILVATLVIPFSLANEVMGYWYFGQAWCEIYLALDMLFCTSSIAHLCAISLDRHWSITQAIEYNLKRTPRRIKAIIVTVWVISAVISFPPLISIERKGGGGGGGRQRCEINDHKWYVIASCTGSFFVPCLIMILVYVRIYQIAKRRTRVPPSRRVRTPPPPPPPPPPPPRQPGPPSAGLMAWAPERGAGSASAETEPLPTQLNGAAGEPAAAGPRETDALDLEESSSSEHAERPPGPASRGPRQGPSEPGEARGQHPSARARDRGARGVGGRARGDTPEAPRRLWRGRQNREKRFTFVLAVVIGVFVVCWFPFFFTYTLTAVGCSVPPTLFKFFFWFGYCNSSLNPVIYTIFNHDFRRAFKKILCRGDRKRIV
Procedure: 1. Affinity for platelet α2 adrenergic receptors
The compounds of the formula (I) were tested on the platelet adrenergic receptor of rabbit which is exclusively of α2 type (MICHEL T., Nature, 288, (5792) 709, 1980).
The affinity of said compounds for the α2 receptors is determined by measuring the inhibition of the specific linking of tritiated dihydroergocryptine (DHE) by the test compounds.
The rabbits used are male New-Zealand albino rabbits
Blood is taken by the intracardiac route, over ACD (an anticoagulant consisting of an aqueous solution containing 0.27 g citric acid, 0.5 g trisodium citrate and 0.02 g glucose per 20 ml water) at a rate of 1 volume ACD per 6 volumes blood.
The blood is centrifuged 10 minutes at 280 g and the supernatant (PRP) is collected. The PRP is centrifuged 15 minutes at 2000 g.
The platelet sediment is washed twice with buffer I (Tris 50 mM, NaCl 150 mM, EDTA 20 mM, pH 7.5) and is then re-suspended in buffer II (Tris 50 mM, EDTA 5 mM, pH 7.5).
This suspension is frozen at -40° C., and is then defrosted; the procedure is repeated twice. The suspension is then homogenized, after which it is centrifuged 10 minutes at 40,000 g, at 4° C.
The centrifugation sediment is washed with buffer II and is then re-suspended in this same buffer so that the final protein concentration is of the order of 1.5 mg/ml.
The inhibition tests are effected in a final volume of 0.2 ml of buffer II containing the tritiated DHE (7 nM) and varying concentrations of test compound.
The reaction is initiated by adding 0.2 mg proteins and is continued for 30 minutes at 25° C.
The incubation is terminated by adding 2 ml buffer II and by rapidly filtering this mixture in vacuo, through Whatman GF/C filters. The filters are rapidly washed with buffer II and the radioactivity bound to the filter is determined by liquid scintillation.
The dosage required to inhibit 50 percent of the linking of the […] DHE (CE50) is calculated for each of the test compounds.

[3] = system: male Swiss mice (NMRI-Han); assay: Acute toxicity by the intraperitoneal route; format: in vivo; conditions: observation time 48 hours
Procedure: The mice used are male Swiss mice (NMRI-Han) with an average body weight of 25 g.
The acute toxicity investigation was effected by the intraperitoneal route.
The compounds were injected in aqueous solution, at three dosage levels: 50, 100 and 200 mg/kg.
Table below gives the results obtained with compounds of the formula (I), after an observation time of 48 hours.
The results are expressed as number of dead animals vs. the total number of animals treated.

Clc1cccc(Cl)c1C=NNC1=NCCN1 [(2,6-dichlorobenzylidene-hydrazino)-2-imidazoline, reference compound]
effect on pressure in the contralateral eye (evidence of an action at the level of the central nervous system) [1]: concomitant decrease of the pressure in the contralateral eye

Cc1cc(O)ccc1C=NNC1=NCCN1 [Compound 1]
IC50 [2]: 3 µM
Duration of the effect [1]: 360 mn
t (time corresponding to the maximum effect) [1]: 60 mn
Δmax (maximum decrease of the intraocular pressure with respect to the basic value at time zero) [1]: -3.12 ± 2.21 mm Hg
number of dead animals vs. total number of animals treated ([3]; 100 mg/kg): 0/3
number of dead animals vs. total number of animals treated ([3]; 200 mg/kg): 0/3

Cc1cc(N)ccc1C=NNC1=NCCN1 [Compound 2]
IC50 [2]: 10 µM
Duration of the effect [1]: 300 mn
t (time corresponding to the maximum effect) [1]: 60 mn
Δmax (maximum decrease of the intraocular pressure with respect to the basic value at time zero) [1]: -4.12 ± 0.95 mm Hg
number of dead animals vs. total number of animals treated ([3]; 100 mg/kg): 0/3
number of dead animals vs. total number of animals treated ([3]; 200 mg/kg): 3/3

CC(=NNC1=NCCN1)c1ccc(O)cc1C [Compound 3]
IC50 [2]: 5.6 µM
Duration of the effect [1]: 300 mn
t (time corresponding to the maximum effect) [1]: 30 mn
Δmax (maximum decrease of the intraocular pressure with respect to the basic value at time zero) [1]: -1.83 ± 1 mm Hg
number of dead animals vs. total number of animals treated ([3]; 100 mg/kg): 0/3
number of dead animals vs. total number of animals treated ([3]; 200 mg/kg): 3/3

COc1cc(O)ccc1C=NNC1=NCCN1 [Compound 4]
IC50 [2]: 3 µM
Duration of the effect [1]: 400 mn
t (time corresponding to the maximum effect) [1]: 60 mn
Δmax (maximum decrease of the intraocular pressure with respect to the basic value at time zero) [1]: -2.5 ± 0.57 mm Hg
number of dead animals vs. total number of animals treated ([3]; 100 mg/kg): 0/3
number of dead animals vs. total number of animals treated ([3]; 200 mg/kg): 0/3

COc1cc(N)ccc1C=NNC1=NCCN1 [Compound 5]
IC50 [2]: 14 µM
Duration of the effect [1]: 360 mn
t (time corresponding to the maximum effect) [1]: 120 mn
Δmax (maximum decrease of the intraocular pressure with respect to the basic value at time zero) [1]: -3.9 ± 0.5 mm Hg
number of dead animals vs. total number of animals treated ([3]; 100 mg/kg): 0/3

COc1cc(O)ccc1C(C)=NNC1=NCCN1 [Compound 6]
IC50 [2]: 2.5 µM

Cc1cc(O)ccc1C=NNC(=N)N [Compound 7]
IC50 [2]: 6.3 µM
t (time corresponding to the maximum effect) [1]: 60 mn
Δmax (maximum decrease of the intraocular pressure with respect to the basic value at time zero) [1]: -0.25 ± 1.7 mm Hg
number of dead animals vs. total number of animals treated ([3]; 100 mg/kg): 0/3
number of dead animals vs. total number of animals treated ([3]; 200 mg/kg): 3/3

Cc1cc(N)ccc1C=NNC(=N)N [Compound 8]
IC50 [2]: 32 µM
number of dead animals vs. total number of animals treated ([3]; 100 mg/kg): 0/3
number of dead animals vs. total number of animals treated ([3]; 200 mg/kg): 3/3

COc1cc(O)ccc1C=NNC(=N)N [Compound 9]
IC50 [2]: 8 µM
number of dead animals vs. total number of animals treated ([3]; 50 mg/kg): 0/3
number of dead animals vs. total number of animals treated ([3]; 100 mg/kg): 3/3
number of dead animals vs. total number of animals treated ([3]; 200 mg/kg): 3/3

CC(=NNC(=N)N)c1ccc(O)cc1C [Compound 10]
IC50 [2]: 11 µM
number of dead animals vs. total number of animals treated ([3]; 100 mg/kg): 0/3
number of dead animals vs. total number of animals treated ([3]; 200 mg/kg): 2/3

COc1cc(O)ccc1C(C)=NNC(=N)N [Compound 11]
IC50 [2]: 1.3 µM

Clc1cccc(Cl)c1N=C1NCCN1 [clonidine, 2,6-dichloro-anilino-2-imidazoline, reference compound]
effect on pressure in the contralateral eye (evidence of an action at the level of the central nervous system) [1]: concomitant decrease of the pressure in the contralateral eye
